Consider 16 compounds from patent US9206186B2, “2-phenoxy- and 2-phenylsulfonamide derivatives with CCR3 antagonistic activity for the treatment of inflammatory or immunological disorders” (AXIKIN PHARMACEUTICALS, INC., priority 2003, dated 2015).

Structures can show the parent of a compound that is named as a salt.

One series addresses T1, Human CCR3 (Homo sapiens, UniProt P51677).
T1 construct: The cloned CCR3 cDNA was constructed with pcDNA3 vector and transfected into a K562 cell line; expressed in transfected cells
T1 sequence (P51677 1-355): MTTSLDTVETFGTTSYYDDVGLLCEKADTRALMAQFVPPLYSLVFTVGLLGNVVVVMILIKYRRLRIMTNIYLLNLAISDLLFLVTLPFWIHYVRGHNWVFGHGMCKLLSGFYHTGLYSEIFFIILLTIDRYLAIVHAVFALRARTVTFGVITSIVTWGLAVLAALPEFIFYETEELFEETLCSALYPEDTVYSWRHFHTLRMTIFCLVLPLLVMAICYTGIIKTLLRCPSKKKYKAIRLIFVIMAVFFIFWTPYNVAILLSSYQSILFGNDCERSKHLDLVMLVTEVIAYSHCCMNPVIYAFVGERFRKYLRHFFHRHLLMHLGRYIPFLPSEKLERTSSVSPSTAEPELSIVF
Kind of series: Calcium mobilization assay (Ca2+), eotaxin-stimulated human CCR3-transformed K562 cells. Format: cell-based. Particulars: compounds of about 40 to 90% purity, read-out: Activity grade IC50. The protocol: • Human CCR3-transformed K562 cells were used. The cloned CCR3 cDNA was constructed with pcDNA3 vector and transfected into a K562 cell line. The human CCR3-transformed K562 cells were maintained in RPMI-1640 (Cat.#22400-089, Life Technologies) supplemented with 10% FCS (Cat.#A-1115-L, Hyclone), 55 μM 2-mercaptoethanol (Cat.#21985-023, Life Technologies), 1 mM sodium pyruvate (Cat.#11360-070, Life Technologies), 100 units/ml of penicillin G and 100 μg/ml of streptomycin (Cat.#15140-122, Life Technologies), and 0.4 mg/ml of Geneticin (Cat.#10131-035, Life Technologies) (hereinafter called “culture medium”). Before the receptor binding assay, cells were pretreated with 5 mM sodium butyrate (Cat.#193-01522, Wako)-containing the culture medium (2×10^5 cells/ml) for 20-24 hours to increase the expression of CCR3. (2) Receptor Binding Assay • Butyrate-pretreated cells, suspended in binding buffer (25 mM HEPES pH 7.6, 1 mM CaCl2, 5 mM MgCl2, 0.5% BSA, 0.1% NaN3) at a cell density of 2×10^6 cells/ml, were added into 60 μl/well in the 96-well round bottom polypropylene plate (Cat.#3365, Costar). Compounds, diluted with the binding buffer (4-times higher concentration of the final concentration), were added into 30 μl/well in the polypropylene plate. [^125I]-labeled human eotaxin (Cat.#IM290, Amersham Pharmacia Biotech), diluted with the binding buffer at the concentration of 0.4 nM (final concentration; 0.1 nM), was added into 30 μl/well in the polypropylene plate. Total 120 μl/well of binding reaction mixture (60 μl/well of cell suspension, 30 μl/well of compound solution, and 30 μl/well of [^125I]-labeled eotaxin) were incubated in the polypropylene plate for 1 hour at room temperature after the incubation, 100 μl/well of the reaction mixture was transferred to a filtration plate (Cat.#MAFB-N0B, Millipore), and washed with the washing buffer (25 mM HEPES pH 7.6, 1 mM CaCl2, 5 mM MgCl2, 0.5% BSA, 0.1% NaN3, 0.5 M NaCl) twice. The 96-well filtration plate was pretreated with 100 μl/well of 0.5% polyethylenimine (Cat.#P-3143, Sigma) for 2-4 hours at room temperature and washed with the washing buffer twice before use. The non-specific binding was determined by parallel incubation in the presence of 500 nM of non-labeled eotaxin (Cat.#23209, Genzyme Techne). The radioactivities remained on the filter were measured by liquid scintillation counter (TopCount™, Packard) after an addition of 45 μl/well of scintillant (Microscint20, Cat.#6013621, Packard). The inhibition percent at each concentration of compound was calculated, and IC50 values were determined from the inhibition curve. [Determination of IC50 Values of Compounds in Calcium Mobilization Assay] (1) Cell • Human CCR3-transformed K562 cells were used. The human CCR3-transformed K562 cells were maintained in RPMI-1640 supplemented with 10% FCS, 55 μM 2-mercaptoethanol (Cat.#21985-023, Life Technologies), 1 mM sodium pyruvate, 100 units/ml of penicillin G and 100 μg/ml of streptomycin, and 0.4 mg/ml of Geneticin. Before the calcium mobilization assay, cells were pretreated with 5 mM sodium butyrate-containing the culture medium (2×10^5 cells/ml) for 20-24 hours to increase the expression of CCR3. (2) Calcium Mobilization Assay • Butyrate-pretreated cells were loaded with Fluo-3AM (Cat.#F-1242, Molecular Probes) in loading buffer (Hanks' solution Cat.#05906 Nissui, 20 mM HEPES pH 7.6, 0.1% BSA, 1 mM probenecid Cat.#P-8761 Sigma, 1 μM Fluo-3AM, 0.01% pluronic F-127 Cat.#P-6866 Molecular Probes) at a cell density of 1×10^7 cells/ml. Then, cells were washed with calcium assay buffer (Hanks' solution Cat.#05906 Nissui, 20 mM HEPES pH 7.6, 0.1% BSA, 1 mM Probenecid Cat.#P-8761 Sigma). The cell suspension (3.3×10^6 cells/ml) was added into 60 μl/well in the 96-well clear bottom black plate (Cat.#3904, Costar). Compounds, diluted (5-times concentration of the final concentration) with the calcium assay buffer, were added into 20 μl/well in the plate 10 minutes before assay. […]
On the technique in general: Calcium assays in cells follow changes in intracellular calcium, usually with a dye or a luminescent sensor.

`N#Cc1ccc(Oc2cc(Cl)cc(Cl)c2)c(S(=O)(=O)C2CCNCC2)c1` (as salt: hydrochloride) [Example 2-1, 4-(3,5-Dichloro-phenoxy)-3-(piperidine-4-sulfonyl)-benzonitrile]: the melting point (in general, the temperature, or range, at which the solid turns liquid) is 220 to 226 °C (dec.).

As for `O=[N+]([O-])c1ccc(Sc2cc(Cl)cc(Cl)c2)c(S(=O)(=O)N[C@H]2CN3CCC2CC3)c1` (stereo in doubt), the melting point stood at 256 °C.

For the compound `CC(C)(C)[Si](C)(C)O[C@H]1CN(C2CCN(S(=O)(=O)c3cc(C#N)ccc3Oc3cc(Cl)cc(Cl)c3)CC2)C[C@@H]1O` [Example 1-14], on Human CCR3, the IC50 (usually the concentration at which inhibition is half-maximal) was 0.1 to 0.5 µM.

Take `N#Cc1ccc(Oc2cc(Cl)cc(Cl)c2)c(S(=O)(=O)N2CC[C@H](N(CCO)CCO)C2)c1` [Example 1-15]: the melting point fell in the range of 153 to 154 °C. Also, the IC50 at Human CCR3 is 0.1 to 0.5 µM.

With `N#Cc1ccc(Oc2cc(Cl)cc(Cl)c2)c(S(=O)(=O)N[C@@H]2CC3OC3C[C@@H]2N)c1` (stereo partly drawn) [Example 1-17], the melting point is 165 to 182 °C (dec.). Moreover, on Human CCR3, the IC50 is greater than 0.5 µM.

Consider `N#Cc1ccc(Oc2cc(Cl)cc(Cl)c2)c(S(=O)(=O)N2CC[C@H](N3C[C@H](O)[C@@H](O)C3)C2)c1` [Example 1-18], for which the IC50 on Human CCR3 was 0.1 to 0.5 µM.

Turning to `N#Cc1ccc(Oc2cc(Cl)cc(Cl)c2)c(S(=O)(=O)N[C@@H]2C[C@H](O)[C@@H](O)C[C@@H]2N)c1` [Example 1-19], the IC50 at Human CCR3 is greater than 0.5 µM.

As for `Cl.Cl.N#Cc1ccc(Oc2cc(Cl)cc(Cl)c2)c(S(=O)(=O)N2CCNC(CN)C2)c1` (stereo not drawn) [Example 1-20], the melting point lay within 240 to 241 °C. Also, the IC50 at Human CCR3 is greater than 0.5 µM.

As to `CN(C)CCN(C)CCN(C)S(=O)(=O)c1cc(C#N)ccc1Oc1cc(Cl)cc(Cl)c1` [Example 1-23], at Human CCR3, the IC50 was in the range of 0.1 to 0.5 µM.

Take `N#Cc1ccc(Oc2cc(Cl)cc(Cl)c2)c(S(=O)(=O)NC2CCCCNC2=O)c1` (stereo not drawn) [Example 1-24]: the melting point is 172 to 173 °C. Also, the concentration for half-maximal inhibition (IC50) at Human CCR3 is 0.1 to 0.5 µM.

As for `COC(=O)C1CN(C2CCNCC2)CCCN1S(=O)(=O)c1cc(C#N)ccc1Oc1cc(Cl)cc(Cl)c1` (stereo not drawn) [Example 1-25], the IC50 at Human CCR3 is 0.1 to 0.5 µM.

In the case of `O=S(=O)(c1cc(-n2cnnn2)ccc1Oc1cc(Cl)cc(Cl)c1)N1CCNCC1` [Example 1-30], at Human CCR3, the IC50 is greater than 0.5 µM.

Take `N#Cc1ccc(Oc2cc(Cl)cc(Cl)c2)c(S(=O)(=O)N(CCN2C(=O)CCC2=O)[C@H]2CN3CCC2CC3)c1` [Example 1-38]: the IC50 on Human CCR3 was greater than 0.5 µM.

Regarding `CN(C)CC(NS(=O)(=O)c1cc(C#N)ccc1Oc1cc(Cl)cc(Cl)c1)C(=O)O` (stereo not drawn) [Example 1-40], the melting point amounted to 190 °C. In addition, the IC50 at Human CCR3 was greater than 0.5 µM.

As to `N#Cc1ccc(Oc2cc(Cl)cc(Cl)c2)c(S(=O)(=O)NC2CN(Cc3ccccc3)CCN(Cc3ccccc3)C2)c1` [Example 1-41], the IC50 on Human CCR3 is greater than 0.5 µM.

Turning to `Cl.N#Cc1ccc(Oc2cc(Cl)cc(Cl)c2)c(S(=O)(=O)C2CCNCC2)c1` [Example 1-47], the melting point is 220 to 226 °C (dec.).
